These results are taken from patent publication US5874442A, “Tricyclic amides useful for inhibition of G-protein function and for treatment of proliferative disease” (Schering-Plough Corporation, priority 1996, dated 1999).

SMILES strings stand for the structures.

In test [1] the test system is Ras-CVLS processing in COS cells. Description: Cell-based COS cell assay: inhibition of Ras processing (Ras-CVLS). Further details: species or system monkey. To be noted: Primates, COS, read-out: Inhibition of Ras Processing IC50, Table 3, COS cells. From the text: Transient expression of val^12 -Ha-Ras-CVLS and […] -Ha-Ras-CVLL in COS monkey kidney cells: Effect of farnesyl protein transferase inhibitors on Ras processing and on disordered cell growth induced by transforming Ras.
COS monkey kidney cells were transfected by electroporation with the plasmid pSV-SPORT (Gibco/BRL) containing a cDNA insert encoding either Ras-CVLS or Ras-CVLL, leading to transient overexpression of a Ras substrate for either farnesyl protein transferase or geranylgeranyl protein transferase I, respectively (see above).
Following electroporation, cells were plated into 6-well tissue culture dishes containing 1.5 ml of Dulbecco's-modified Eagle's media (GIBCO, Inc.) supplemented with 10% fetal calf serum and the appropriate farnesyl protein transferase inhibitors. After 24 hours, media was removed and fresh media containing the appropriate drugs was re-added.
48 hours after electroporation cells were examined under the microscope to monitor disordered cell growth induced by transforming Ras. Cells expressing transforming Ras become more rounded and refractile and overgrow the monolayer, reminiscent of the transformed phenotype. Cells were then photographed, washed twice with 1 ml of cold phosphate-buffered saline (PBS) and removed from the dish by scraping with a rubber policeman into 1 ml of a buffer containing 25 mM Tris, pH 8.0; 1 mM ethylenediamine tetraacetic acid; 1 mM phenylmethylsulfonyl fluoride; […]; and 0.1 mM pepstatin. Cells were lysed by homogenization and cell debris was removed by centrifugation at 2000× g for 10 min.
Cellular protein was precipitated by addition of ice-cold trichloroacetic acid and redissolved in […] of SDS-electrophoresis sample buffer. […] Proteins resolved on the gels were electroblotted onto nitrocellulose membranes for immunodetection.
After washing, membranes were incubated for one hour at room temperature with a 1:5000 dilution of secondary antibody, rabbit anti-rat lgG conjugated to horseradish peroxidase, in PBS containing 1% fetal calf serum. The presence of processed and unprocessed Ras-CVLS or Ras-CVLL was detected using a colorimetric peroxidase reagent (4-chloro-1-naphthol) as described by the manufacturer (Bio-Rad).

Test [2] relates to T24-BAG4 human bladder carcinoma cells expressing an activated H-ras gene. Description: Cell mat assay, T24-BAG4 tumor cells. It is filed as cell-based. The note with it: Homo sapiens, 336 h, read-out: Tumor (T-24) IC50. The protocol:
(§1) Compound-induced colony inhibition was assayed by addition of serial dilutions of compound directly to the growth medium 24 h after tumor cell planting, and incubating cells for an additional 14 d to allow colony formation. Assays were terminated by rinsing monolayers twice with phosphate-buffered saline (PBS), fixing the monolayers with a 1% glutaraldehyde solution in PBS, then visualizing tumor cells by staining with X-Gal (Price, J., et al., Lineage analysis in the vertebrate nervous system by retrovirus-mediated gene transfer, Proc. Natl. Acad. Sci.84, 156-160(1987)). […] Both IC50 values were obtained by determining the density of tumor cells and mat cells by visual inspection and enumeration of cells per colony and the number of colonies under the microscope.

For test [3], the system named is DLD-1-BAG human colon carcinoma cells. Description: Cell mat assay, DLD-1-BAG tumor cells. It is filed as cell-based. To be noted: Homo sapiens, DLD-1, 336 h, read-out: Tumor (DLD-1) IC50. As to the method: as §1
(§2) Additional assays were carried out by following essentially the same procedure as described above, but with substitution of alternative indicator tumor cell lines in place of the T24-BAG cells. The assays were conducted using either DLD-1-BAG human colon carcinoma cells expressing as activated K-ras gene or SW620-BAG human colon carcinoma cells expressing an activated K-ras gene.

Test [4] relates to SW620-BAG human colon carcinoma cells expressing an activated K-ras gene. Description: Cell mat assay, SW620-BAG tumor cells. It is filed as cell-based. The note with it: Homo sapiens, SW-620, 336 h, read-out: Tumor (SW620) IC50, Mat assay, 14 d. The protocol: as §1, §2
In another test the test system is K ras NIH 3T3. Description: Soft agar assay. The test is classed as cell-based. The note with it: Mus musculus, NIH3T3, read-out: IC50, inhibition of human tumor cell growth, soft agar.
The next test has as its system H ras NIH 3T3. Description: Soft agar assay. To be noted: Mus musculus, NIH3T3, read-out: IC50, inhibition of human tumor cell growth, soft agar. It is filed as cell-based.
For a further test, the system named is BT474 (breast). Description: Soft agar assay. The test is classed as cell-based. The note with it: Homo sapiens, BT-474, read-out: IC50, inhibition of human tumor cell growth, soft agar. The protocol:
(§3) Anchorage-independent growth is a characteristic of tumorigenic cell lines. Human tumor cells are suspended in growth medium containing 0.3% agarose and an indicated concentration of a farnesyl transferase inhibitor. The solution is overlayed onto growth medium solidified with 0.6% agarose containing the same concentration of farnesyl transferase inhibitor as the top layer. After the top layer is solidified, plates are incubated for 10-16 days at 37° C. under 5% CO2 to allow colony outgrowth. After incubation, the colonies are stained by overlaying the agar with a solution of MTT (3-[4,5-dimethylthiazol-2-yl]-2,5-diphenyltetrazolium bromide, Thiazolyl blue) (1 mg/mL in PBS). Colonies are counted and the IC50's determined.

Another test deals with DU 145. Description: Soft agar assay. The test is classed as cell-based. The note with it: Homo sapiens; DU 145 (prostate) ras mut. not detected; read-out: IC50, inhibition of human tumor cell growth, soft agar. As to the method:
as §3

A further test concerns HPAF II. Description: Soft agar assay. The test is classed as cell-based. To be noted: Homo sapiens; HPAF II (pancreatic) K ras mutation; read-out: IC50, inhibition of human tumor cell growth, soft agar. The protocol:
as §3

The next test has as its system HTB 173 (NCI H146). Description: Soft agar assay. The test is classed as cell-based. To be noted: Homo sapiens; HTB 173 (NCI H146) (SCLC) ras mut. not detected; read-out: IC50, inhibition of human tumor cell growth, soft agar. As to the method: as §3
In another test the test system is HTB 183 (NCI H661). Description: Soft agar assay. To be noted: Homo sapiens; HTB 183 (NCI H661) (NSCLC) ras mut. not detected; read-out: IC50, inhibition of human tumor cell growth, soft agar. The test is classed as cell-based. As to the method:
as §3

The test system of a further test is MCF-7. Description: Soft agar assay. It is filed as cell-based. The note with it: Homo sapiens, MCF7; MCF-7 (breast) ras mut. not detected; read-out: IC50, inhibition of human tumor cell growth, soft agar. As to the method: as §3
Another test concerns MDA MB 468. Description: Soft agar assay. The test is classed as cell-based. To be noted: Homo sapiens; MDA MB 468 (breast) ras mut. not detected; read-out: IC50, inhibition of human tumor cell growth, soft agar. The protocol: as §3
A further test has as its system PC3 (prostate). Description: Soft agar assay. The test is classed as cell-based. To be noted: Homo sapiens, read-out: IC50, inhibition of human tumor cell growth, soft agar. As to the method:
as §3

Test [5] deals with DLD-1 (human colon carcinoma cells). Description: In vivo anti-tumor studies, subcutaneous DLD-1 tumors in athymic nu/nu mice. Further details: species or system athymic nu/nu female mice. The note with it: Mus musculus, DLD-1, po, […], read-out: Average % Tumor Inhibition.
Method: Tumor bearing animals are selected and randomized when the tumors are established. Animals are treated with vehicle (β-cyclodextrin for i.p. or corn oil for p.o.) only or with a compound of the present invention in vehicle four times a day (QID) for 7 days per week for 4 weeks. The percent inhibition of tumor growth relative to vehicle controls is determined by tumor measurements.

Consider `NC(=O)N1CCC(CC(=O)N2CCC([C@H]3c4ncc(Br)cc4CCc4cc(Cl)cc(Br)c43)CC2)CC1` [Example 10], for which the IC50 (in general, the midpoint of a concentration-inhibition curve) in test [1] was less than 25 nM; in test [2], less than 1600 nM; in test [3], less than 1600 nM; in test [4], 3100 nM; with K ras NIH 3T3 it was 400 nM; in the test with H ras NIH 3T3, 75 nM. Further, the IC50 in the test with BT474 (breast) is 1000 nM; in the test with DU 145 it was 600 nM; in the test with HPAF II it was less than 500 nM; with HTB 173 (NCI H146) it was 50 nM; in the test with HTB 183 (NCI H661), 500 nM; in the test on MCF-7, less than 600 nM. For the same compound, the IC50 was determined as 600 nM in the test with MDA MB 468 and 1250 nM with PC3 (prostate). For the same compound, in [5], the inhibition in vivo at 10 mg/kg is 49%. Also, the inhibition in vivo at 50 mg/kg in [5] was 77%.
